Measured values: the NIST ThermoML archive (doi:10.1016/j.fluid.2010.03.010)

Conditions: for surface tension liquid-gas: Wilhelmg Plate Tensimeter; for mass density: Liquid, Vibrating tube method

CCOS(=O)(=O)[O-].CCn1cc[n+](C)c1 [1-ethyl-3-methylimidazolium ethyl sulfate]
Conditions | surface tension liquid-gas [mN/m]
292.91 K | 47.16
298.26 K | 46.9
303 K | 46.59
308.61 K | 46.35
313.41 K | 46.12
322.71 K | 45.5
332.09 K | 45.08

Conditions | mass density [kg/m3]
293.15 K, 100 kPa | 1241.3
293.15 K, 101.33 kPa | 1241.37
293.15 K, 250 kPa | 1241.4
293.15 K, 500 kPa | 1241.4
293.15 K, 1000 kPa | 1241.7
293.15 K, 1990 kPa | 1242.1
293.15 K, 4990 kPa | 1243.3
293.15 K, 10010 kPa | 1245.3
293.15 K, 14990 kPa | 1247.2
293.15 K, 20000 kPa | 1249.2
293.15 K, 24990 kPa | 1251.1
293.15 K, 30010 kPa | 1253
293.15 K, 35000 kPa | 1254.8
293.15 K, 40000 kPa | 1256.6
293.15 K, 45000 kPa | 1258.4
293.15 K, 50000 kPa | 1260.2
293.15 K, 55000 kPa | 1262
293.15 K, 60000 kPa | 1263.7
294.15 K, 101.33 kPa | 1240.67
295.15 K, 101.33 kPa | 1239.97
296.15 K, 101.33 kPa | 1239.28
297.15 K, 101.33 kPa | 1238.58
298.15 K, 101.33 kPa | 1237.88
299.15 K, 101.33 kPa | 1237.19
300.15 K, 101.33 kPa | 1236.5
301.15 K, 101.33 kPa | 1235.81
302.15 K, 101.33 kPa | 1235.12
303.15 K, 100 kPa | 1234.3
303.15 K, 101.33 kPa | 1234.43
303.15 K, 250 kPa | 1234.4
303.15 K, 500 kPa | 1234.5
303.15 K, 1000 kPa | 1234.7
303.15 K, 2010 kPa | 1235.1
303.15 K, 4990 kPa | 1236.3
303.15 K, 10010 kPa | 1238.4
303.15 K, 14990 kPa | 1240.4
303.15 K, 20000 kPa | 1242.4
303.15 K, 24990 kPa | 1244.3
303.15 K, 30010 kPa | 1246.3
303.15 K, 35010 kPa | 1248.1
303.15 K, 40000 kPa | 1250
303.15 K, 45000 kPa | 1251.8
303.15 K, 50000 kPa | 1253.6
303.15 K, 55000 kPa | 1255.4
303.15 K, 60000 kPa | 1257.1
304.15 K, 101.33 kPa | 1233.74
305.15 K, 101.33 kPa | 1233.05
306.15 K, 101.33 kPa | 1232.37
307.15 K, 101.33 kPa | 1231.69
308.15 K, 101.33 kPa | 1231
309.15 K, 101.33 kPa | 1230.32
310.15 K, 101.33 kPa | 1229.64
311.15 K, 101.33 kPa | 1228.96
312.15 K, 101.33 kPa | 1228.28
313.15 K, 100 kPa | 1227.5
313.15 K, 101.33 kPa | 1227.61
313.15 K, 250 kPa | 1227.5
313.15 K, 500 kPa | 1227.6
313.15 K, 2000 kPa | 1228.3
313.15 K, 4990 kPa | 1229.5
313.15 K, 10010 kPa | 1231.7
313.15 K, 14990 kPa | 1233.7
313.15 K, 20000 kPa | 1235.7
313.15 K, 25000 kPa | 1237.6
313.15 K, 30010 kPa | 1239.6
313.15 K, 35000 kPa | 1241.5
313.15 K, 40000 kPa | 1243.4
313.15 K, 44990 kPa | 1245.3
313.15 K, 50000 kPa | 1247.1
313.15 K, 54990 kPa | 1248.9
313.15 K, 60000 kPa | 1250.7
314.15 K, 101.33 kPa | 1226.93
315.15 K, 101.33 kPa | 1226.25
316.15 K, 101.33 kPa | 1225.58
317.15 K, 101.33 kPa | 1224.9
318.15 K, 101.33 kPa | 1224.23
319.15 K, 101.33 kPa | 1223.56
320.15 K, 101.33 kPa | 1222.89
321.15 K, 101.33 kPa | 1222.21
322.15 K, 101.33 kPa | 1221.54
323.15 K, 100 kPa | 1220.7
323.15 K, 101.33 kPa | 1220.88
323.15 K, 250 kPa | 1220.8
323.15 K, 500 kPa | 1220.9
323.15 K, 1010 kPa | 1221.1
323.15 K, 2010 kPa | 1221.6
323.15 K, 4990 kPa | 1222.9
323.15 K, 10010 kPa | 1225
323.15 K, 14990 kPa | 1227.1
323.15 K, 20010 kPa | 1229.1
323.15 K, 25000 kPa | 1231.1
323.15 K, 30010 kPa | 1233.1
323.15 K, 35000 kPa | 1235.1
323.15 K, 40000 kPa | 1237
323.15 K, 45000 kPa | 1238.9
323.15 K, 50000 kPa | 1240.8
323.15 K, 55000 kPa | 1242.6
323.15 K, 60000 kPa | 1244.5
324.15 K, 101.33 kPa | 1220.21
325.15 K, 101.33 kPa | 1219.54
326.15 K, 101.33 kPa | 1218.87
327.15 K, 101.33 kPa | 1218.21
328.15 K, 101.33 kPa | 1217.54
329.15 K, 101.33 kPa | 1216.88
330.15 K, 101.33 kPa | 1216.21
331.15 K, 101.33 kPa | 1215.55
332.15 K, 101.33 kPa | 1214.89
333.15 K, 100 kPa | 1214.1
333.15 K, 101.33 kPa | 1214.23
333.15 K, 250 kPa | 1214.1
333.15 K, 500 kPa | 1214.2
333.15 K, 1000 kPa | 1214.4
333.15 K, 2010 kPa | 1214.9
333.15 K, 5000 kPa | 1216.2
333.15 K, 10010 kPa | 1218.4
333.15 K, 14990 kPa | 1220.5
333.15 K, 20000 kPa | 1222.7
333.15 K, 24990 kPa | 1224.7
333.15 K, 30000 kPa | 1226.7
333.15 K, 34990 kPa | 1228.7
333.15 K, 40000 kPa | 1230.7
333.15 K, 45020 kPa | 1232.6
333.15 K, 50000 kPa | 1234.5
333.15 K, 54990 kPa | 1236.4
333.15 K, 60000 kPa | 1238.3
334.15 K, 101.33 kPa | 1213.56
335.15 K, 101.33 kPa | 1212.9
336.15 K, 101.33 kPa | 1212.24
337.15 K, 101.33 kPa | 1211.58
338.15 K, 101.33 kPa | 1210.92
339.15 K, 101.33 kPa | 1210.26
340.15 K, 101.33 kPa | 1209.6
341.15 K, 101.33 kPa | 1208.95
